The text below walks through data of publication PMC12491715 (Acta Pharmaceutica Sinica. B, 2025).

For data set [1], the system named is caspase-3 activity in SH-SY5Y cells. The experiment in a line: Caspase-3 activity in lysates of Aβ1–42-treated cells. Format: cell-based, human. The settings on record: 5 μmol/L compound, 5 μmol/L fibrillar Aβ1–42, 24 h. The protocol:
(§1) Cell culture and treatments The human neuroblastoma SH-SY5Y cell line was purchased from American Type Culture Collection (Manassas, VA, USA). Cells were cultured in Advanced Dulbecco’s modified Eagle’s medium (Gibco, Thermo Fisher Scientific, Waltham, MA, USA) supplemented with 10% fetal bovine serum (FBS, Gibco), 2 mmol/L L-glutamine, 50 U/mL penicillin and 50 μg/mL streptomycin (Sigma, St. Louis, MO, USA) in a humidified atmosphere of 95% air and 5% CO2 at 37 °C, and grown to 80% confluence. Prior to cell treatment, complete medium was replaced with serum-reduced medium (i.e., with 2% FBS). Compounds were prepared as a stock solution of 50 mmol/L in DMSO.
Caspase-3 activity and Western blot analysis The activity of caspases-3 was determined in total cell lysates of the SH-SY5Y cells treated as described. […] Following cell treatment for 24 h, cell lysates were prepared, and the caspase-3 activity was assessed using the fluorescent peptide substrate N-acetyl-L-α-aspartyl-L-α-glutamyl-L-valyl-N-[2-oxo-4-(trifluoromethyl)-2H-1-benzopyran-7-yl]-L-α-asparagine (Ac-DEVD-AFC; Bachem). […] Immediately after the addition of the substrate, fluorescence was monitored continuously for 30 min at an excitation wavelength of 405 nm and an emission wavelength of 535 nm using a Tecan Safire[2] fluorescence microplate reader. […]

Data set [2] concerns the target hBChE (Homo sapiens, UniProt P06276). The experiment in a line: ChE IC50 determination, method of Ellman, hBChE. It counts as biochemical. The protocol:
The inhibitory potencies of the compounds against the ChEs were determined using the method of Ellman following the procedure described previously. Briefly, compound stock solutions in DMSO were incubated with Ellman’s reagent and ChEs (final concentrations: 370 μmol/L Ellman’s reagent, approximately 1 nmol/L or 50 pmol/L hBChE or hAChE, respectively) in 0.1 mol/L sodium phosphate pH 8.0 for 5 min at 20 °C. For time-dependency measurements, the pre-incubation time was varied (1, 5, 15, 30 or 60 min). The reactions were started by the addition of the substrate (final concentration, 500 μmol/L butyrylthiocholine iodide or acetylthiocholine iodide for hBChE and hAChE, respectively). The final content of DMSO was always 1%. The increase in absorbance at 412 nm was monitored for 2 min using a 96-well microplate reader (Synergy HT, BioTek Instruments, VT, USA). The initial velocities in the presence (vi) and absence (v0) of the test compounds were calculated. The inhibitory potencies were expressed as the residual activities, according to Eq. (1):(1) RA = vi / v0
For IC50 determinations, at least seven different concentrations for each compound were used. The IC50 values were obtained by plotting the residual ChE activities against the applied inhibitor concentrations, with the experimental data fitted to a four-parameter logistic function (GraphPad Prism 9.4). Tacrine and donepezil were used as positive controls.
(In general: Ellman's reagent forms a yellow product with free thiols.)

Data set [3] can be described thus: Shake-flask partition coefficient / logD. It counts as physicochemical. The conditions noted are these: n-octanol/PBS buffer. The procedure: Shake-flask partition coefficient measurement was done according to OECD guideline 107 (27. 7. 1995) and EPA OPPTS 830.7550 guideline (1996). […] […] Each solvent ratio was done in duplicates. The Eppendorf tubes were thoroughly shaken to ensure partition and centrifuged (5000 × g, 10 min) to separate the phases. Water phase (carefully sampled using needle and syringe) was transferred to HPLC vials directly, whereas n-octanol phases were diluted with MeCN (10–50×) prior to analysis. Additional dilutions were carried out, if needed.

Data set [4] concerns SH-SY5Y cells. The data set is described as follows: Neuroprotection assay against Aβ1–42, 7-AAD flow cytometry. It counts as cell-based, human. The conditions noted are these: 5 μmol/L compound, 5 μmol/L fibrillar Aβ1–42, 48 h. The protocol:
as §1
Neuroprotection assay The neuroprotective effect of compounds on cytotoxic effect of Aβ1–42 was determined with the fluorescent intercalator 7-aminoactinomycin D (7-AAD) assessed by flow cytometry. Prior to cell treatment, the peptide Aβ1–42 (Merck Millipore, Darmstadt, Germany) was dissolved in DMSO at a concentration of 1 mmol/L and was incubated at 100 μmol/L in 1 mol/L HCl at 37 °C for 24 h to induce Aβ aggregation. […] Cells were then analysed for cytotoxicity by flow cytometry on Attune NxT flow cytometer (Thermo Fisher Scientific). The percentage of 7AAD positive (7AADpos) cells was evaluated using FlowJo software (FlowJo, LLC., Ashland, OR, USA).

Data set [5] has as its system GSK3β. The experiment in a line: Western blot of APP/PS1 mice brain homogenates, GSK3β. The settings on record: 15-day treatment, 1 or 5 mg/kg ip. Format: in vivo, C57BL/6J-TgN(APP/PS1)ZLFILAS mice. For orientation: A western blot detects proteins with antibodies after separation by electrophoresis.

Chain of hBChE (P06276 29-602): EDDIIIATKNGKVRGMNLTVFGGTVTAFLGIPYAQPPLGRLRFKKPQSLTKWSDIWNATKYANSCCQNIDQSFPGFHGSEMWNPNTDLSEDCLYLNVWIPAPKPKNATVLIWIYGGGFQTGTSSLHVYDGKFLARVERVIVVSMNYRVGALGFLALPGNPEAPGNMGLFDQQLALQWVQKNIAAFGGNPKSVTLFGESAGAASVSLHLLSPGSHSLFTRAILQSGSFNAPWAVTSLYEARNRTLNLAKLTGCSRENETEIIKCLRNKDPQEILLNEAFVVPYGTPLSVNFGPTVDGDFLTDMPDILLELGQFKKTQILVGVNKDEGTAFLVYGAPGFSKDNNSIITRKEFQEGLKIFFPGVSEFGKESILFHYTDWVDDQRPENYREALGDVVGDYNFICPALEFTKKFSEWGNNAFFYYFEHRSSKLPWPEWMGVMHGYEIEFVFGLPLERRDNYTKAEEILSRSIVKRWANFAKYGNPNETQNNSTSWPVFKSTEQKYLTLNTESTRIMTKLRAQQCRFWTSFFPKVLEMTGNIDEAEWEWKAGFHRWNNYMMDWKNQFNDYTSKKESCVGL

For `CCN(CC)C(=O)n1cnc(C2(CC)Cc3ccccc3C2)c1` [Compound 8, N,N-Diethyl-4-(2-ethylindan-2-yl)-1H-imidazole-1-carboxamide], the “caspase-3 activity after Aβ1–42 treatment” value in data set [1] is on record as “significant reduction”. For the same compound, the IC50 in data set [2] (after 5 min preincubation, read-out: hBChE IC50±SD) is 1520 ± 90 nM. In addition, the “hBChE time-dependency observed: Yes/No” value in data set [2] (pre-incubation time varied) was “Yes”. The logD was determined as 0.3 ± 0.06 in data set [3] (pH 0.91); 1.18 ± 0.1 in data set [3] (pH 1.99); 2.17 ± 0.25 in data set [3] (pH 3.07); 3.05 ± 0.1 in data set [3] (pH 4.44); 3.15 ± 0.14 in data set [3] (pH 6.02); 3.33 ± 0.11 in data set [3] (pH 7.4). The compound also displayed a logD in data set [3] (pH 9.55) of 3.52 ± 0.39. In addition, the “7-AAD-positive cells after Aβ1–42 treatment” value in data set [4] was “significant reduction”. Further, in data set [5], the “phosphorylation of GSK3β in whole brain homogenates” value is listed as “increased phosphorylation of GSK3β”.

What is called IC50 is the concentration needed to halve the response being measured. Broadly, the logD is the decadic logarithm of the distribution of all forms, ionised or not, between an organic phase and buffer at a given pH. A higher logD goes with a more lipophilic compound.
